Measurements reported in US9283277B2, “Methods and compositions for the treatment of obesity” (Children's Medical Center Corporation, priority 2008, dated 2016).

How the values were obtained:
Type in all cases: in vivo
[1] = test system: ob/ob mice; assay: PBA pretreatment and leptin administration in ob/ob mice; conditions: for initial body weight: vehicle or PBA pretreated
Method: Nine-week old lean wt and ob/ob mice were orally treated with either PBA (1 g/kg/day) or vehicle (VEH) for 26 days and PERK (Thr980) phosphorylation is examined in the hypothalamus extracts with direct immunoblotting. (B) Ten week-old wt lean and ob/ob mice were intraperitoneally injected with leptin (0.1 mg/kg) after six-hour starvation. Hypothalami were removed 30 minutes after the injections, and pStat3^Tyr705 and total Stat3 levels were examined. (C) Nine-week old lean wt and ob/ob mice were orally treated with PBA (1 g/kg/day) for 10 days. Following the pretreatment period, leptin-deficient ob/ob mice were either administered with VEH or with different doses of leptin through the intraperitoneal route. The effect of VEH or PBA administration on (C) bodyweight (g), (D) percent decrease in bodyweight and (E) 24-hour food intake (n=3 for VEH and n=4 PBA-treated group). Effect of 5 mg/kg/day leptin administration on (F) bodyweight, (G) percent decrease in bodyweight and (H) 24-hour food intake in VEH- or PBA-treated ob/ob mice (n=3 for VEH and n=4 PBA-treated group). Analysis of the same parameters (body weight, percent decrease in bodyweight and 24-hour food intake) in (I, J, K) 1 mg/kg/day and (L, M, N) 0.1 mg/kg/day leptin-treated mice (n=3 for VEH and n=4 PBA-treated group). Data presented as means±SEM (*p<0.05, **p<0.01, ***p<0.001).
To test whether reduction of ER stress will increase leptin sensitivity of the ob/ob mice, we orally administered PBA or vehicle for 10 days as a pretreatment. Following this period, daily leptin injections (IP) were given at doses ranging from 0.01 mg/kg/day to 5 mg/kg/day. […]

[2] = test system: ob/ob mice; assay: TUDCA pretreatment and leptin in ob/ob mice (bodyweight, metabolic cage, DEXA)
Method: (a) Hypothalamic PERK phosphorylation (Thr980) after 21 days of vehicle or TUDCA (150 mg/kg/day) treatment. Following a five-day pretreatment with TUDCA (150 mg/kg/day) or vehicle, nine-ten week old ob/ob mice were treated either with leptin (1 mg/kg/day) or vehicle. (b) Body weight (g), (c) % decrease in body weight, (d) daily food intake of the ob/ob mice during 18 days of treatment period with the indicated regimens. (e) Blood glucose (mg/dl) levels at the 18th day of treatment. Metabolic cage studies were performed; (f) CO2 production (ml/kg/hr), (g) O2 consumption (ml/kg/hr), (h) Respiratory exchange ratio (VCO2/VO2), (i) X-axis ambulatory activity, (j) Heat generation (kcal/hr). Dexa scan analysis of (k) total fat amount (g), (l) fat % and (m) lean body mass (g). C57BL/6 male wt mice were kept on HFD feeding for 32 weeks and following a five day acclimation period were pretreated with TUDCA (150 mg/kg/day) for five days. At the end of pretreatment period intraperitoneal vehicle and leptin (1 mg/kg/day) treatments were started. (n) Body weight (g), (o) % decrease in bodyweight of the HFD-fed mice during the 16-day treatment. (n=6 for VEH, n=7 for Lep, n=7 for TUD, n=8 for TUD+Lep group). Error bars are ±S.E.M., P values are determined by Student's t-test. (*p<0.05, **p<0.01, ***p<0.001)
(§1) If the postulate that reduction of ER stress in the hypothalamus increases leptin sensitivity is true, chemical chaperones other than PBA should also create the same effect and sensitize the obese mice to leptin. TUDCA is a hydrophilic bile acid, which has a completely different structure than PBA, but has chemical chaperone activity in common^25. First, we investigated whether TUDCA can reduce ER stress in the hypothalamus of the ob/ob mice. For this purpose we treated ob/ob mice either with vehicle or TUDCA (150 mg/kg/day) for a period of 21 days and analyzed the hypothalamic PERK phosphorylation. […] To address this question we first pretreated the ob/ob mice with TUDCA (150 mg/kg/day) for 5 days and subsequently initiated leptin (1 mg/kg) treatment. […] Body weight of the ob/ob mice decreased further with leptin and TUDCA co-treatment and reached to 34.39±1.30 g from 50.55±1.14 g (Lep vs. TUD+Lep, p<0.001). […] Furthermore, to investigate the metabolic homeostasis in more detail, we placed the mice in metabolic cages. […] Heat generation was the same between the groups (FIG. 5j). Next, we analyzed the whole body fat composition by DEXA scan. […] Finally, analysis of lean mass has shown that none of the treatments lead to a significant change in this parameter ([…]). We additionally investigated the effect of TUDCA and leptin co-treatment on C57BL/6 wt-lean mice.
We next tested the efficacy of TUDCA as a leptin sensitizer in the HFD-induced obesity model. In this experiment we used 35 weeks old and C57BL/6 wt mice, which were kept on HFD-feeding for 32 weeks. We divided the mice into two groups for TUDCA and TUDCA-leptin co-treatment. Body weight of the mice in this cohort was between 35-52 g. We specifically chose the mice with the highest bodyweight for TUDCA and leptin co-treatment group to investigate whether leptin will become effective in these severely obese mice when administered along with the TUDCA. The initial body weight of the TUDCA group was 38.33±1.16 (g) and TUDCA+leptin group was 48.46±1.82 (g) (FIG. 5n). […]

[3] = test system: C57BL/6 wt-lean mice; assay: TUDCA and leptin co-treatment in C57BL/6 wt-lean mice; conditions: leptin 1 mg/kg/day, TUDCA 150 mg/kg/day, 30 days
Method: Following an initial acclimation period, eight week-old wt lean mice were treated with vehicle (VEH), Leptin (1 mg/kg/day) (L), TUDCA (150 mg/kg/day) (TUD) or leptin and TUDCA together for a period of 30 days. (a) Bodyweight (g), (b) % decrease in bodyweight, (c) Daily food intake (g) of the wt mice treated with VEH, LEP, TUD and TUD+LEP during the experimental period (n=4 in each group). Error bars are ±S.E.M., P values are determined by Student's t-test (*p<0.05, **p<0.01, ***p<0.001).
as §1

[4] = oral PBA 1 g/kg/day alone vs vehicle
[5] = leptin 1 mg/kg/day IP, vehicle or PBA (1 g/kg/day) pretreated
[6] = leptin 5 mg/kg/day IP, 16 days, vehicle or PBA (1 g/kg/day) pretreated

Compound | leptin sensitization ([1]; PBA + 0.1 mg/kg/day leptin gives weight loss equivalent to 1 mg/kg/day leptin alone) | body weight [1, 4] | food consumption [1, 4] | initial body weight ([2]; before leptin 1 mg/kg, with or without TUDCA 150 mg/kg/day) [g] | percent decrease from the initial body weight ([2]; leptin 1 mg/kg/day, 18 days, with or without TUDCA 150 mg/kg/day) [%] | body weight after treatment ([2]; leptin 1 mg/kg/day, 18 days, with or without TUDCA 150 mg/kg/day (5 days pretreatment)) [g] | initial body weight ([1]; before leptin 1 mg/kg/day) [g] | initial body weight ([1]; before leptin 5 mg/kg/day) [g] | effect on body weight ([1]; leptin 0.1 mg/kg/day IP alone (vehicle pretreated)) | body weight after treatment [1, 5] [g] | decrease in bodyweight [1, 5] [%] | food intake ([1]; leptin 5 mg/kg/day IP after 10 days vehicle or PBA (1 g/kg/day) pretreatment) | body weight after treatment [1, 6] [g] | decrease in bodyweight from the initial weight [1, 6] [%] | body weight [3] | food intake [3] | blood glucose levels ([2]; 18th day of treatment, TUDCA 150 mg/kg/day, leptin 1 mg/kg/day) | body weight ([2]; TUDCA 150 mg/kg/day alone)
O=C(O)CCCc1ccccc1 [PBA, 4-phenyl butyric acid] | ten-fold | did not affect | did not affect | – | – | – | – | – | – | – | – | – | – | – | – | – | – | –
leptin: adipocyte-derived hormone that suppresses appetite | – | – | – | 50.50 ± 0.55 | 9.27±1.34 | 43.75 ± 0.22 | 57.10 ± 0.58 | 56 ± 1.16 | did not significantly reduce | 46.61 ± 0.52 | 17.73 | significantly inhibited | 41.13 ± 2.35 | 27.33±2.65 | did not observe any significant changes | did not observe any significant changes | – | –
C[C@H](CCC(=O)NCCS(=O)(=O)O)[C@H]1CC[C@H]2[C@@H]3[C@@H](O)C[C@@H]4C[C@H](O)CC[C@]4(C)[C@H]3CC[C@]12C [TUDCA, tauroursodeoxycholic acid] | – | – | – | – | – | – | – | – | – | – | – | – | – | – | did not observe any significant changes | did not observe any significant changes | lowered | did not decrease
